Experimental findings from ChEMBL document CHEMBL5370577, “Structurally Diverse Cytotoxic Polyphenols from Garcinia gracilis” (J Nat Prod, 2023) are described below.

Data set [1] deals with SW480. The experiment in a line: Growth inhibition in human SW480 cells assessed as reduction in cell viability at 40 uM incubated for 48 hrs by MTS assay relative to control. To be noted: read-out: GI. The data set is classed as functional. (Tetrazolium dyes change colour on reduction, which living cells bring about.)
Data set [2] relates to HL-60. The data set can be described thus: Growth inhibition in human HL-60 cells assessed as reduction in cell viability at 40 uM incubated for 48 hrs by MTS assay relative to control. The data set is classed as functional. To be noted: read-out: GI.
Data set [3] relates to HL-60. The data set can be described thus: Cytotoxicity against human HL-60 cells assessed as reduction in cell viability incubated for 48 hrs by MTS assay. The data set is classed as functional, cell-based. The note with it: HL-60, 48 h.
Data set [4] has as its system A549. The experiment in a line: Cytotoxicity against human A549 cells assessed as reduction in cell viability incubated for 48 hrs by MTS assay. The data set is classed as functional, cell-based. To be noted: A549, 48 h.
For data set [5], the system named is MDA-MB-231. The experiment in a line: Growth inhibition in human MDA-MB-231 cells assessed as reduction in cell viability at 40 uM incubated for 48 hrs by MTS assay relative to control. The data set is classed as functional. The note with it: read-out: GI.
For data set [6], the system named is SW480. The experiment in a line: Cytotoxicity against human SW480 cells assessed as reduction in cell viability incubated for 48 hrs by MTS assay. The data set is classed as functional, cell-based. To be noted: SW480, 48 h.
Data set [7] has as its system A549. The data set can be described thus: Growth inhibition in human A549 cells assessed as reduction in cell viability at 40 uM incubated for 48 hrs by MTS assay relative to control. To be noted: read-out: GI. The data set is classed as functional.
Data set [8] deals with SMMC-7721. The data set can be described thus: Growth inhibition in human SMMC-7721 cells assessed as reduction in cell viability at 40 uM incubated for 48 hrs by MTS assay relative to control. The note with it: read-out: GI. The data set is classed as functional.
The test system of data set [9] is MDA-MB-231. The data set can be described thus: Cytotoxicity against human MDA-MB-231 cells assessed as reduction in cell viability incubated for 48 hrs by MTS assay. The note with it: MDA-MB-231, 48 h. The data set is classed as functional, cell-based.
The subject of data set [10] is SMMC-7721. The experiment in a line: Cytotoxicity against human SMMC-7721 cells assessed as reduction in cell viability incubated for 48 hrs by MTS assay. The data set is classed as functional, cell-based. To be noted: SMMC-7721, 48 h.
A short description of data set [11]: Cytotoxicity against human BEAS-2B cells assessed as reduction in cell viability incubated for 48 hrs by MTS assay. The data set is classed as toxicity, cell-based.
The test system of data set [12] is SMMC-7721. The data set can be described thus: Induction of apoptosis in human SMMC-7721 cells assessed as viable cells at 5 uM incubated for 24 hrs by Annexin V-PE/7-AAD staining based flow cytometry analysis (Rvb= 98.6%). The data set is classed as functional. To be noted: read-out: Activity. (In flow cytometry, cells or beads pass a laser one at a time.)
Data set [13] deals with SMMC-7721. The experiment in a line: Induction of apoptosis in human SMMC-7721 cells assessed as necrotic cells at 5 uM incubated for 24 hrs by Annexin V-FITC/PI staining based flow cytometry analysis (Rvb= 0.572%). The data set is classed as functional.
The test system of data set [14] is SMMC-7721. The experiment in a line: Induction of apoptosis in human SMMC-7721 cells assessed as late apoptotic cells at 5 uM incubated for 24 hrs by Annexin V-PE/7-AAD staining based flow cytometry analysis (Rvb= 0.627%). The data set is classed as functional.
The subject of data set [15] is SMMC-7721. The experiment in a line: Induction of apoptosis in human SMMC-7721 cells assessed as early apoptotic cells at 5 uM incubated for 24 hrs by Annexin V-PE/7-AAD staining based flow cytometry analysis (Rvb= 0.231%). The data set is classed as functional.
Data set [16] concerns SMMC-7721. The experiment in a line: Induction of apoptosis in human SMMC-7721 cells assessed as late apoptotic cells at 20 uM incubated for 24 hrs by Annexin V-PE/7-AAD staining based flow cytometry analysis (Rvb= 0.627%). The data set is classed as functional.
Data set [17] has as its system SMMC-7721. The data set can be described thus: Induction of apoptosis in human SMMC-7721 cells assessed as viable cells at 10 uM incubated for 24 hrs by Annexin V-PE/7-AAD staining based flow cytometry analysis (Rvb= 98.6%). To be noted: read-out: Activity. The data set is classed as functional.
In data set [18] the test system is SMMC-7721. The data set can be described thus: Induction of apoptosis in human SMMC-7721 cells assessed as early apoptotic cells at 20 uM incubated for 24 hrs by Annexin V-PE/7-AAD staining based flow cytometry analysis (Rvb= 0.231%). The data set is classed as functional.
Data set [19] relates to SMMC-7721. The experiment in a line: Induction of apoptosis in human SMMC-7721 cells assessed as necrotic cells at 10 uM incubated for 24 hrs by Annexin V-FITC/PI staining based flow cytometry analysis (Rvb= 0.572%). The data set is classed as functional.
The subject of data set [20] is SMMC-7721. The data set can be described thus: Induction of apoptosis in human SMMC-7721 cells assessed as necrotic cells at 20 uM incubated for 24 hrs by Annexin V-FITC/PI staining based flow cytometry analysis (Rvb= 0.572%). The data set is classed as functional.
In data set [21] the test system is SMMC-7721. The data set can be described thus: Induction of apoptosis in human SMMC-7721 cells assessed as early apoptotic cells at 10 uM incubated for 24 hrs by Annexin V-PE/7-AAD staining based flow cytometry analysis (Rvb= 0.231%). The data set is classed as functional.
Data set [22] relates to SMMC-7721. The data set can be described thus: Induction of apoptosis in human SMMC-7721 cells assessed as late apoptotic cells at 10 uM incubated for 24 hrs by Annexin V-PE/7-AAD staining based flow cytometry analysis (Rvb= 0.627%). The data set is classed as functional.
Data set [23] concerns SMMC-7721. The experiment in a line: Induction of apoptosis in human SMMC-7721 cells assessed as viable cells at 20 uM incubated for 24 hrs by Annexin V-PE/7-AAD staining based flow cytometry analysis (Rvb= 98.6%). The data set is classed as functional. To be noted: read-out: Activity.

As for `CC(C)=CC[C@@]12OC(C)(C)[C@@H]3C[C@H](C=C4C(=O)c5c(O)cc(O)c(CCC(C)(C)O)c5O[C@]431)C2=O`, the inhibition of growth at 40 µM in [1], in [2], in data set [5], in data set [7] and in [8] was above 50% throughout. The IC50 – broadly, the concentration needed to halve the response being measured – in data set [3] was found to be 4900 nM; in data set [4], 2900 nM; in data set [6] it was 3800 nM; in data set [9], 6200 nM; in data set [10], 2100 nM. In addition, the IC50 at 48 h in data set [11] turned out to be 7700 nM.
Consider `CC(C)=CCc1c(O)cc(O)c2c1O[C@]13C(=C[C@H]4C[C@H]1C(C)(C)O[C@@]3(CC=C(C)C)C4=O)C2=O`, for which the inhibition of growth at 40 µM in data set [1], in [2], in [5], in [7] and in [8] was above 50% in each case. Besides, the IC50 is 1100 nM in data set [3]; 800 nM in [4]; 1000 nM in [6]; 1300 nM in data set [9]; 500 nM in data set [10]. Besides, the concentration for half-maximal inhibition (IC50) at 48 h in data set [11] stood at 700 nM.
As to `CC(C)=CC[C@@]12OC(C)(C)[C@@H]3C[C@H](C=C4C(=O)c5c(O)cc6c(c5O[C@]431)CCC(C)(C)O6)C2=O`, the inhibition of growth at 40 µM in data set [1], in [2], in [5], in [7] and in [8] was above 50% in each case. The IC50 in data set [3] came to 1700 nM; in [4], 2900 nM; in [6], 1000 nM; in data set [9] it was 2300 nM; in [10] it was 1000 nM. For the same compound, in data set [11], the IC50 at 48 h worked out at 1100 nM.
For `CC(C)(O)CCc1c(O)cc(O)c2c(=O)c3ccc(O)c(O)c3oc12`, the inhibition of growth at 40 µM in data set [1], in data set [2], in data set [5], in data set [7] and in [8] was above 50% in each case. The IC50 in [3] amounted to 3900 nM; in data set [4] it was 7200 nM; in data set [6], 6100 nM; in [9] it was 27300 nM; in data set [10], 2200 nM. Further, in [11], the IC50 at 48 h was determined as 20400 nM.
On to `CC1(C)C=Cc2c(cc(O)c3c(=O)c4ccc(O)c(O)c4oc23)O1`, for which the inhibition of growth at 40 µM in data set [1], in data set [2], in data set [5], in data set [7] and in [8] was above 50% throughout. The IC50 stood at 3900 nM in data set [4], 4000 nM in data set [6], 8900 nM in [9] and 2200 nM in data set [10]. In addition, in data set [11], the IC50 at 48 h is 21100 nM.
Turning to `COc1cccc2c1C(=O)c1c(O)c3c(c(O)c1C2=O)C[C@@](O)(C(=O)CO)C[C@@H]3O[C@H]1C[C@H](N)[C@H](O)[C@H](C)O1` [DOXORUBICIN], in [12], the viability at 5 µM was determined as 1.34%. In addition, the Activity in data set [13] amounted to 1.85%; in data set [14], 96%; in [15], 0.796%.
Regarding `CC(C)=CC[C@@]12OC(C)(C)[C@@H]3C[C@H](C=C4C(=O)c5c(O)cc(O)cc5O[C@]431)C2=O`, the Activity in data set [16] is listed as 68.7%; in [18] it was 20.5%; in data set [19], 8.22%; in data set [20] it was 3.79%; in data set [21] it was 12.7%; in data set [13], 1.8%. For the same compound, the Activity came out at 9.08% in data set [14], 29.1% in data set [22] and 3.74% in data set [15]. Besides, the viability at 5 µM in data set [12] amounted to 85.4%. Further, the viability at 10 µM in data set [17] stood at 50%. Also, the inhibition of growth at 40 µM in data set [1], in [2], in data set [5], in data set [7] and in data set [8] was above 50% each time. Also, the IC50 worked out at 6300 nM in [3]; 2600 nM in [4]; 3700 nM in data set [6]; 5700 nM in data set [9]; 1400 nM in data set [10]. The IC50 at 48 h in data set [11] was 3200 nM. In addition, the viability at 20 µM in data set [23] came out at 6.98%.
